According to patent publication US11051515B2, “3-acyl-benzamides and their use as herbicides” (Bayer Aktiengesellschaft, priority 2017, dated 2021):

Columns and labels:
[1] = system: ALOMY; experiment: Pre-emergence action against ALOMY; format: in vivo, Alopecurus myosuroides; settings: dosage 320 g/ha; pre-emergence; scored visually after 3 weeks vs untreated controls; 100% = plants have died, 0% = like control plants
In short: (§1)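 Seeds sown in sandy loam in wood-fiber pots and covered with soil. Greenhouse growth; visual damage scored after 3 weeks versus untreated controls (100% = dead, 0% = like control).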

[2] = system: AVEFA; experiment: Pre-emergence action against AVEFA; format: in vivo, Avena fatua; settings: dosage 320 g/ha, scored visually after 3 weeks vs untreated controls
In short: as §1

[3] = system: CYPES; experiment: Pre-emergence action against CYPES; format: in vivo, Cyperus esculentus; settings: pre-emergence, dosage 320 g/ha, scored visually after 3 weeks vs untreated controls
In short: as §1

[4] = system: ECHCG; experiment: Pre-emergence action against ECHCG; format: in vivo, Echinochloa crus-galli; settings: pre-emergence, dosage 320 g/ha, scored visually after 3 weeks vs untreated controls
In short: as §1

[5] = system: LOLRI; experiment: Pre-emergence action against LOLRI; format: in vivo, Lolium rigidum; settings: dosage 320 g/ha, scored visually after 3 weeks vs untreated controls
In short: as §1

[6] = system: SETVI; experiment: Pre-emergence action against SETVI; format: in vivo, Setaria viridis; settings: pre-emergence, dosage 320 g/ha, scored visually after 3 weeks vs untreated controls
In short: as §1

[7] = system: ABUTH; experiment: Pre-emergence action against ABUTH; format: in vivo, Abutilon theophrasti; settings: pre-emergence, dosage 320 g/ha, scored visually after 3 weeks vs untreated controls
In short: as §1

[8] = system: AMARE; experiment: Pre-emergence action against AMARE; format: in vivo, Amaranthus retroflexus; settings: pre-emergence, dosage 320 g/ha, scored visually after 3 weeks vs untreated controls
In short: as §1

[9] = system: MATIN; experiment: Pre-emergence action against MATIN; format: in vivo, Matricaria inodora; settings: Dosage 320 g/ha, pre-emergence
In short: as §1

[10] = system: PHBPU; experiment: Pre-emergence action against PHBPU; format: in vivo, Pharbitis purpurea; settings: Dosage 320 g/ha, pre-emergence
In short: as §1

[11] = system: POLCO; experiment: Pre-emergence action against POLCO; format: in vivo, Polygonum convolvulus; settings: Dosage 320 g/ha, pre-emergence
In short: as §1

[12] = system: STEME; experiment: Pre-emergence action against STEME; format: in vivo, Stellaria media; settings: Dosage 320 g/ha, pre-emergence
In short: as §1

[13] = system: VIOTR; experiment: Pre-emergence action against VIOTR; format: in vivo, Viola tricolor; settings: Dosage 320 g/ha, pre-emergence
In short: as §1

[14] = system: VERPE; experiment: Pre-emergence action against VERPE; format: in vivo, Veronica persica; settings: Dosage 320 g/ha, pre-emergence
In short: as §1

[15] = system: HORMU; experiment: Pre-emergence action against HORMU; format: in vivo, Hordeum murinum; settings: Dosage 320 g/ha
In short: as §1

[16] = system: ALOMY; experiment: Post-emergence action against ALOMY; format: in vivo, Alopecurus myosuroides; settings: Dosage 80 g/ha, post-emergence
In short: (§2)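 Post-emergence foliar spray on greenhouse plants at the one-leaf stage, using wettable-powder or emulsion-concentrate formulations in water (600 to […], plus 0.2% wetting agent). Damage scored by eye roughly 3 weeks later against untreated plants: 0% = like control, 100% = dead.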

[17] = system: CYPES; experiment: Post-emergence action against CYPES; format: in vivo, Cyperus esculentus; settings: post-emergence, dosage 80 g/ha, visual assessment about 3 weeks after treatment vs untreated controls
In short: as §2

[18] = system: ECHCG; experiment: Post-emergence action against ECHCG; format: in vivo, Echinochloa crus-galli; settings: post-emergence, dosage 80 g/ha, visual assessment about 3 weeks after treatment vs untreated controls
In short: as §2

[19] = system: LOLRI; experiment: Post-emergence action against LOLRI; format: in vivo, Lolium rigidum; settings: dosage 80 g/ha, visual assessment about 3 weeks after treatment vs untreated controls
Method: Seeds of monocotyledonous and dicotyledonous weed and crop plants are laid out in sandy loam soil in wood-fiber pots, covered with soil and cultivated in a greenhouse under good growth conditions. 2 to 3 weeks after sowing, the test plants are treated at the one-leaf stage. The compounds of the invention, formulated in the form of wettable powders (WP) or as emulsion concentrates (EC), are then sprayed onto the green parts of the plants in the form of an aqueous suspension or emulsion at a water application rate equating to […], with addition of 0.2% wetting agent. After the test plants have been left to stand in the greenhouse under optimal growth conditions for about 3 weeks, the action of the preparations is assessed visually in comparison to untreated controls (herbicidal action in percent (%): 100% activity=the plants have died, 0% activity=like control plants). […] At the same time, inventive compounds leave Gramineae crops such as barley, wheat, rye, millet/Sorghum, corn or rice virtually undamaged when applied post-emergence, even at high active ingredient dosages. In addition, some substances are also harmless to dicotyledonous crops such as soya, cotton, oilseed rape, sugar beet or potatoes. Some of the compounds according to the invention have high selectivity and are therefore suitable for controlling unwanted vegetation in agricultural crops by the post-emergence method. The data of Tables B18 to B34 below illustrate, in an exemplary manner, the […] herbicidal action of the compounds according to the invention, the herbicidal activity being stated in percent.

[20] = system: SETVI; experiment: Post-emergence action against SETVI; format: in vivo, Setaria viridis; settings: post-emergence, dosage 80 g/ha, visual assessment about 3 weeks after treatment vs untreated controls
In short: as §2

[21] = system: ABUTH; experiment: Post-emergence action against ABUTH; format: in vivo, Abutilon theophrasti; settings: post-emergence, dosage 80 g/ha, visual assessment about 3 weeks after treatment vs untreated controls
In short: as §2

[22] = system: AMARE; experiment: Post-emergence action against AMARE; format: in vivo, Amaranthus retroflexus; settings: post-emergence, dosage 80 g/ha, visual assessment about 3 weeks after treatment vs untreated controls
In short: as §2

[23] = system: MATIN; experiment: Post-emergence action against MATIN; format: in vivo, Matricaria inodora; settings: post-emergence, dosage 80 g/ha, visual assessment about 3 weeks after treatment vs untreated controls
In short: as §2

[24] = system: PHBPU; experiment: Post-emergence action against PHBPU; format: in vivo, Pharbitis purpurea; settings: post-emergence, dosage 80 g/ha
In short: as §2

[25] = system: POLCO; experiment: Post-emergence action against POLCO; format: in vivo, Polygonum convolvulus; settings: post-emergence, dosage 80 g/ha
In short: as §2

[26] = system: STEME; experiment: Post-emergence action against STEME; format: in vivo, Stellaria media; settings: post-emergence, dosage 80 g/ha
In short: as §2

[27] = system: VIOTR; experiment: Post-emergence action against VIOTR; format: in vivo, Viola tricolor; settings: post-emergence, dosage 80 g/ha
In short: as §2

[28] = system: VERPE; experiment: Post-emergence action against VERPE; format: in vivo, Veronica persica; settings: dosage 80 g/ha
In short: as §2

[29] = system: AVEFA; experiment: Post-emergence action against AVEFA; format: in vivo, Avena fatua; settings: post-emergence, dosage 80 g/ha, visual assessment about 3 weeks after treatment vs untreated controls
In short: as §2

## CC1CC1C(=O)c1c(C(F)(F)F)ccc(C(=O)Nc2nnnn2C)c1Cl (centres unmarked) [1-148]
[1]
  Pre-emergence action against ALOMY (herbicidal activity in percent): 100%
[2]
  Pre-emergence action against AVEFA (herbicidal activity): 90%
[3]
  Pre-emergence action against CYPES (herbicidal activity): 90%
[4]
  Pre-emergence action against ECHCG (herbicidal activity): 100%
[5]
  Pre-emergence action against LOLRI (herbicidal activity): 100%
[6]
  SETVI (Table B8, pre-emergence herbicidal activity): 100%
[7]
  Pre-emergence action against ABUTH (herbicidal activity): 100%
[8]
  Pre-emergence action against AMARE (herbicidal activity): 100%
[9]
  Pre-emergence action against MATIN: 100%
[10]
  Pre-emergence action against PHBPU: 100%
[11]
  Pre-emergence action against POLCO: 90%
[12]
  Pre-emergence action against STEME: 100%
[13]
  Pre-emergence action against VIOTR: 100%
[14]
  Pre-emergence action against VERPE: 100%
[15]
  Pre-emergence action against HORMU: 80%
[16]
  Post-emergence action against ALOMY: 80%
[17]
  Post-emergence action against CYPES (herbicidal action in percent): 90%
[18]
  Post-emergence action against ECHCG (herbicidal action in percent): 100%
[19]
  Post-emergence action against LOLRI (herbicidal action in percent): 80%
[20]
  Post-emergence action against SETVI (herbicidal action in percent): 100%
[21]
  Post-emergence action against ABUTH (herbicidal action in percent): 100%
[22]
  Post-emergence action against AMARE (herbicidal action in percent): 100%
[23]
  Post-emergence action against MATIN (herbicidal action in percent): 100%
[24]
  Post-emergence action against PHBPU: 100
[25]
  Post-emergence action against POLCO: 80
[26]
  Post-emergence action against STEME: 100
[27]
  Post-emergence action against VIOTR: 90
[28]
  Post-emergence action against VERPE: 100

## CCn1nnnc1NC(=O)c1ccc(C(F)F)c(C(=O)C2CC2)c1Cl [2-168]
[1]
  Pre-emergence action against ALOMY (herbicidal activity in percent): 100%
[2]
  Pre-emergence action against AVEFA (herbicidal activity): 90%
[4]
  Pre-emergence action against ECHCG (herbicidal activity): 100%
[5]
  Pre-emergence action against LOLRI (herbicidal activity): 100%
[6]
  SETVI (Table B8, pre-emergence herbicidal activity): 100%
[7]
  Pre-emergence action against ABUTH (herbicidal activity): 100%
[8]
  Pre-emergence action against AMARE (herbicidal activity): 100%
[9]
  Pre-emergence action against MATIN: 100%
[10]
  Pre-emergence action against PHBPU: 80%
[11]
  Pre-emergence action against POLCO: 90%
[12]
  Pre-emergence action against STEME: 100%
[13]
  Pre-emergence action against VIOTR: 100%
[14]
  Pre-emergence action against VERPE: 100%
[15]
  Pre-emergence action against HORMU: 90%
[16]
  Post-emergence action against ALOMY: 100%
[29]
  Post-emergence action against AVEFA (herbicidal action in percent): 100%
[17]
  Post-emergence action against CYPES (herbicidal action in percent): 100%
[18]
  Post-emergence action against ECHCG (herbicidal action in percent): 100%
[19]
  Post-emergence action against LOLRI (herbicidal action in percent): 100%
[20]
  Post-emergence action against SETVI (herbicidal action in percent): 100%
[21]
  Post-emergence action against ABUTH (herbicidal action in percent): 100%
[22]
  Post-emergence action against AMARE (herbicidal action in percent): 100%
[23]
  Post-emergence action against MATIN (herbicidal action in percent): 100%
[24]
  Post-emergence action against PHBPU: 100
[25]
  Post-emergence action against POLCO: 100
[26]
  Post-emergence action against STEME: 100
[27]
  Post-emergence action against VIOTR: 100
[28]
  Post-emergence action against VERPE: 80
